In assay [1] the target is Alpha-1 adrenergic receptor (Bos taurus). The assay can be described thus: Binding affinity against alpha-1 adrenergic receptor from calf cerebral cortex, using [3H]prazosin as the radioligand.
For assay [2] the target is unchanged. Described as above. This is another data set of the same source.

This is an account of results in BindingDB's records for doi:10.1021/jm00366a022 (1984).

As usually defined, the pKi is the negative decadic logarithm of the Ki, by convention in mol/L. The low end stands for a large Ki, the high end for a small Ki.

pKi: −log10 of the molar value.

As for `Oc1cccc(NCC2=NCCN2)c1` [3-[(4,5-Dihydro-1H-imidazol-2-ylmethyl)-amino]-phenol], in assay [1], the pKi is 6.42. In assay [2], `CCN(CC1=NCCN1)c1ccc(C)cc1` [(4,5-Dihydro-1H-imidazol-2-ylmethyl)-ethyl-p-tolyl-amine] showed a pKi of 6.52. `Cc1ccc(N(C)CC2=NCCN2)cc1` [(4,5-Dihydro-1H-imidazol-2-ylmethyl)-methyl-p-tolyl-amine] gave a pKi in assay [1] of 6.82. On to `Cc1ccc(NCC2=NCCN2)cc1` [(4,5-Dihydro-1H-imidazol-2-ylmethyl)-p-tolyl-amine], for which the negative logarithm of the Ki (pKi) in assay [2] is 6.64. `Cc1ccc(N(CC2=NCCN2)C2CCCCC2)cc1` [Cyclohexyl-(4,5-dihydro-1H-imidazol-2-ylmethyl)-p-tolyl-amine] had a pKi in assay [2] of 6.37.
